Results on 14 molecules are retold here after patent publication US7071316B1, “Human Akt-3” (Janssen Pharmaceutica N.V., priority 1998, dated 2006).

One may read the IC50 as the concentration needed to halve the response being measured.

For data set [1], the target named is T1, T305D,S472D variant of Akt-3 (Homo sapiens, UniProt Q9Y243, S472D/T305D).
T1 construct: made in house; host or cells: E. coli BL21 DE3 (pGEX-4T-3)
As to the kind of experiment: Akt-3 histone H2B phosphorylation assay (GST fusion protein from E. coli, phosphorimager after SDS-PAGE). It is filed as biochemical. As to conditions: for effect on the activity of the T305D,S472D variant of Akt-3: tested at a concentration of 10 FM. Here is the method:
After 30 minutes, the reaction was terminated and the extent of H2B phosphorylation quantified on a phosphorimager following SDS-PAGE.
The pGEX expression constructs were transformed into E. coli strain BL21 DE3 and GST-fusion proteins of wild-type and mutated Akt-3 were purified on glutathione sepharose according to the manufacturers instructions (Amersham Pharmacia Biotech, Uppsala, Sweden). The protein eluted from the beads was stored in 50% glycerol at −20° C. Akt activity was assessed by incubating 0.8 Fg of the purified enzyme for 30 minutes at room temperature (unless otherwise indicated) in a buffer containing 10 mM HEPES, 10 mM MgCl2, 1 mM DTT, 0.1 mg/ml histone H2B at pH 7.0, in a total volume of 25 Fl and containing 10 FCi [γ-^32P]-ATP (6000 Ci/mmol). […] The reaction was stopped by the addition of 25 Fl sample buffer for SDS-PAGE. The results were quantified on a phosphorimager following SDS-PAGE on a 15% (w/v) acrylamide gel.

Data set [2] relates to histone H2B.
In data set [3] the test system is PKC. As to the kind of experiment: Inhibition of PKC (literature, Davis et al., 1992). In kind it is biochemical. The conditions noted are these: more potent inhibitor of PKC than of Akt-3.
Data set [4] relates to PKC. As to conditions: Davis, et al., 1992; cited from earlier work.
Data set [5] deals with Akt-3. As to the kind of experiment: Activation of HA-tagged Akt-3 by IGF in transfected HEK-293 cells (immunoprecipitate, Crosstide phosphorylation). It is filed as cell-based, human. Here is the method:
FIG. 3 is an illustration of phosphorylation of histone H2B by Akt-3 variants. (A) Akt-3 was expressed as a GST fusion protein in E. Coli. To assess hAkt-3 activity, Histone H2B was incubated with GST-Akt-3 and GST-Akt-3 variants for the indicated time and the extent of phosphorylation assessed after SDS-PAGE. The variants of Akt-3 are designated: W.T., wild type; T305D, Thr^305 mutated to Asp; S472D, Ser^472 mutated to Asp; T305D,S472D, both Thr^305 and Ser^472 mutated to Asp. No significant phosphorylation was observed when GST was used in place of GST-Akt. […] Samples were analysed by blotting for the HA-tag (upper panel) or with a phosphospecific antibody which recognises phosphorylated ser^472 (lower panel). (C) Akt activity in HA-immuno-precipitates from samples prepared as described above was assessed by measuring phosphorylation of a peptide substrate (Crosstide). The results are expressed as the increase in activity compared to unstimulated cells transfected with empty vector (mean±s.e.m., n=7).
For expression in HEK-293 cells, cells were transfected with pCDNA-3 Akt-3 constructs as described previously (Alessi et al 1996). […] Akt activity was assessed in immune complexes by measuring phosphorylation of a peptide substrate (Crosstide) in the presence of 1 μM PKI (PKA inhibitor) and 1 μM […] (PKC inhibitor) as described.

Data set [6] relates to Akt-3. As to the kind of experiment: Activation of HA-tagged Akt-3 by IGF-1 in transfected Cos-7 cells (HA immunoprecipitates). In kind it is cell-based, human. As to conditions: stimulation with IGF-1 10 ng/ml, n=2. How it is done: Akt-3 was transiently expressed in Cos-7 by calcium phosphate transfection of the cells with the construct HA-hAkt-3/pcDNA-3. The cells were stimulated with 10 ng/ml IGF-1 for 30 minutes, lysed and Akt-3 immunoprecipitated with mAb 12CA5. Akt-3 activity was assessed as described below.

Data set [7] addresses histone H2B. The source holds these as a separate data set.

Where “and” joins values, the source holds several entries; their conditions need not be identical. Identical values can stand only once.

T1 sequence (Q9Y243 whole entry T305D/S472D): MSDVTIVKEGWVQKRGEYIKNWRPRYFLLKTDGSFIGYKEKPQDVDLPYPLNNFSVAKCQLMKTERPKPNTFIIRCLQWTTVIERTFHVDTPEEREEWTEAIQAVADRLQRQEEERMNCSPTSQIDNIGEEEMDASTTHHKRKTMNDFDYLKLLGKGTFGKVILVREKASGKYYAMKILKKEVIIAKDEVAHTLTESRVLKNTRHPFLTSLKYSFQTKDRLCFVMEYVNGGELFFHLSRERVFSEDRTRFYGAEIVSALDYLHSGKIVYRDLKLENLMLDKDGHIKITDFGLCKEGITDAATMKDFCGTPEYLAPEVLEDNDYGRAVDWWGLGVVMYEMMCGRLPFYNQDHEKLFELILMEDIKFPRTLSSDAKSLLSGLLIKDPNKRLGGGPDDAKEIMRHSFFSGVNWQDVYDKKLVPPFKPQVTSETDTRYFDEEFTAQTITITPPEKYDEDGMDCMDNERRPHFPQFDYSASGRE

Consider `Cn1c2ccccc2c2c3c(c4c5ccccc5n(CCC#N)c4c21)CNC3=O` [Go 6976], for which the “effect on the activity of the T305D,S472D variant of Akt-3” value (“effect on the activity” for short) in data set [1] is listed as “no significant effect”.
Take “GST-Akt-3 T305D (construct hAKT-3(T305D)/pGEX-4T-3)”: in the data set with histone H2B [2], the “initial rate of phosphorylation of histone H2B, relative to the wild-type enzyme” value (“initial rate … relative to the wild-type enzyme” below) is on record as 2.0-fold increase.
`COc1cccc(-c2cc(=O)c3ccccc3o2)c1N` [PD 98059]: the “effect on the activity” value in data set [1] is given as “no significant effect”.
“GST-Akt-3 S472D (construct hAKT-3(S472D)/pGEX-4T-3)”: in the data set with histone H2B [2], the “initial rate … relative to the wild-type enzyme” value was “increased the initial rate only 1.4 fold”.
In the case of `Cn1cc(C2=C(c3cn(CCCSC(=N)N)c4ccccc34)C(=O)NC2=O)c2ccccc21` [Ro 31-8220], in data set [1] (discussion summary of the inhibitor panel), the “inhibition of Akt-3 (in words)” value was “potently inhibited”. In addition, in the data set with PKC [3], the “potency as inhibitor of PKC relative to Akt-3” value is recorded as “approximately 100 fold”. Further, in the data set on PKC [4], the half-inhibitory concentration (IC50) was 0.1 nM.
As to “IGF-1: extracellular stimulus (growth factor) used to activate Akt-3 in transfected cells”, the “increase of Akt-3 activity in anti-HA immunoprecipitates” value in the data set on Akt-3 [5] (upon treatment with IGF (50 ng/ml), above that in untransfected cells, HEK-293) is recorded as roughly 60 fold. Moreover, in the data set with Akt-3 [6], the “increase of Akt-3 activity in HA immunoprecipitates” value is 1.5 fold and 1.9 fold.
`CN([C@@H](Cc1ccc(OS(=O)(=O)c2cccc3cnccc23)cc1)C(=O)N1CCN(c2ccccc2)CC1)S(=O)(=O)c1cccc2cnccc12` [KN-62]: the “effect on the activity” value in data set [1] is reported as “no significant effect”.
Take `O=c1cc(N2CCOCC2)oc2c(-c3ccccc3)cccc12` [CY29 4002]: the “inhibition of activation of Akt-3” value in the data set with Akt-3 [5] (prior treatment, 100 FM, HEK-293 cells stimulated with IGF, data not shown) was 94%.
On to `O=S(=O)(NCCNCC=Cc1ccccc1)c1cccc2cnccc12` [H-88], for which the “effect on the activity” value in data set [1] was “no significant effect”.
Still for that read-out and setting: next, `O=S(=O)(NCCNC/C=C/c1ccc(Br)cc1)c1cccc2cnccc12` [H-89]: “no significant effect”.
With `CCCCCCOC(=O)[C@]1(O)C[C@@H]2O[C@@]1(C)n1c3ccccc3c3c4c(c5c6ccccc6n2c5c31)C(=O)NC4` [KT5720], the “effect on the activity” value in data set [1] is on record as “no significant effect”.
With “GST-Akt-3 T305D,S472D (construct hAKT-3(T305D/S472D)/pGEX-4T-3)”, the “initial rate … relative to the wild-type enzyme” value with histone H2B [2] was 3.2-fold increase.
Turning to `CN(C)CCCn1cc(C2=C(c3c[nH]c4ccccc34)C(=O)NC2=O)c2ccccc21` [GF-109203×], the “effect on the activity” value in data set [1] is given as “no significant effect”.

B1: GST-Akt-3 wild type (construct hAKT-3(WT)/pGEX-4T-3) (protein)
chain: MSDVTIVKEGWVQKRGEYIKNWRPRYFLLKTDGSFIGYKEKPQDVDLPYPLNNFSVAKCQLMKTERPKPNTFIIRCLQWTTVIERTFHVDTPEEREEWTEAIQAVADRLQRQEEERMNCSPTSQIDNIGEEEMDASTTHHKRKTMNDFDYLKLLGKGTFGKVILVREKASGKYYAMKILKKEVIIAKDEVAHTLTESRVLKNTRHPFLTSLKYSFQTKDRLCFVMEYVNGGELFFHLSRERVFSEDRTRFYGAEIVSALDYLHSGKIVYRDLKLENLMLDKDGHIKITDFGLCKEGITDAATMKTFCGTPEYLAPEVLEDNDYGRAVDWWGLGVVMYEMMCGRLPFYNQDHEKLFELILMEDIKFPRTLSSDAKSLLSGLLIKDPNKRLGGGPDDAKEIMRHSFFSGVNWQDVYDKKLVPPFKPQVTSETDTRYFDEEFTAQTITITPPEKYDEDGMDCMDNERRPHFPQFSYSASGRE
As for B1, in the data set with histone H2B [7], the “phosphorylation of histone H2B” value is given as “The purified enzyme was able to phosphorylate histone H2B”.
